Source: the supplement of paper PMC11208160

Test: recombinant barcode read abundance after kanamycin selection (control-corrected) (log10(CPM+1)); higher = more efficient recombination; sequences stand for … in AGTGCAGAGAAAATCGGCCAGTTTTCTCTGCCTGCAGTCCGCATGCCGT…AGATTTATGCAGCGGACTGCCTTTCTCCCAAAGTGATAAACCGGACAGTATCATGGACCGGTTTTCCCGGTAATCCGTATTTGCAAGGTTGGTTTCACT; site = the 11-nt target
In short: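 Each value is log10(CPM+1). It describes recombination efficiency, taken as averaged, control-corrected counts per million of barcodes at recombinant junctions. The pooled E. coli library paired targets with IS621 bridge RNA target-binding loops, was co-electroporated with a donor plasmid, and was plated twice on chloramphenicol/ampicillin LB agar (control) and twice on chloramphenicol/ampicillin/kanamycin containing 0.1 mM IPTG.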
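Further: IS621 recombinase and bridge RNA in Escherichia coli cells.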

Point of comparison: “GTACTCTCTTGGGTTCTAACCTGTTGCCA (site GTACTCTCTTG)”, “recombinant barcode read abundance (log10)” value 1.38. Against it:
- GTACCTTCTTGGGTTCTAACCTGTTGCCT (site GGAGCTTCTAG) — lower, 0.0858
- GTACCTTCTTGGGTTCTAACCTGTTGCCT (site GTACCTTCTAG) — lower, 1.08
- GTACGATCTTGGGTTCTAACCTGTTGCAA (site GTACGATCTTT) — lower, 0.962
- GTACGATCTTGGGTTCTAACCTGTTGCAA (site GTACGGTCTAT) — lower, 0.291
- GTACGATCTTGGGTTCTAACCTGTTGCGG (site CCTTCTCCTAT) — lower, 0.0115
- GTACGATCTTGGGTTCTAACCTGTTGCGG (site GTACGATCTCC) — lower, 0.753
- GTACGGCCTTGGGTTCTAACCTGTTGCCT (site GTACAGCCTAG) — lower, 0.453
- GTACGGCCTTGGGTTCTAACCTGTTGCCT (site GTACCGCCTAG) — lower, 0.0984
- GTACGGCCTTGGGTTCTAACCTGTTGCCT (site GTACGGCCTAG) — lower, 0.319
- GTACGGCCTTGGGTTCTAACCTGTTGCCT (site GTACTGCCTAG) — lower, 0.0887
- GTACTCTCTTGGGTTCTAACCTGTTGCCA (site GAACTGTCTTG) — lower, 0.143
- GTAGCACCTTGGGTTCTAACCTGTTGCTT (site GTAGCACCTAA) — higher, 1.72
- GTAGCACCTTGGGTTCTAACCTGTTGCTT (site GTATGACCTAA) — lower, 0.323
- GTAGGTCCTTGGGTTCTAACCTGTTGCCG (site GTAGGTCCTCG) — higher, 2.48
- GTAGGTCCTTGGGTTCTAACCTGTTGCCG (site TACAACACTAC) — lower, 0.0369
- GTAGTAACTTGGGTTCTAACCTGTTGCCT (site GTAGTAACTAG) — higher, 2.12
- GTAGTAACTTGGGTTCTAACCTGTTGCCT (site GTAGTACCTAG) — lower, 0.104
- GTAGTAACTTGGGTTCTAACCTGTTGCCT (site GTAGTAGCTAG) — lower, 0.206
- GTAGTAACTTGGGTTCTAACCTGTTGCCT (site GTAGTATCTAG) — lower, 0.0374
- GTAGTTCCTTGGGTTCTAACCTGTTGCCT (site GTAGTTCCTAG) — higher, 1.6
- GTAGTTCCTTGGGTTCTAACCTGTTGCCT (site GTCGTTCCTAG) — lower, 0.0557
- GTATACCCTTGGGTTCTAACCTGTTGCCA (site GTATACCCTAT) — lower, 0.498
- GTATACCCTTGGGTTCTAACCTGTTGCCA (site GTATACCCTTG) — within 0.2 log units, 1.27
- GTATATACTTGGGTTCTAACCTGTTGCCT (site GTATATACTAG) — lower, 0.902
- GTATATACTTGGGTTCTAACCTGTTGCCT (site GTCTATACTAG) — lower, 0.112
- GTATATACTTGGGTTCTAACCTGTTGCCT (site GTGTATACTAG) — lower, 0.241
- GTATATACTTGGGTTCTAACCTGTTGCCT (site GTTTATACTAG) — lower, 0.00506
- GTATCAGCTTGGGTTCTAACCTGTTGCCT (site GTATCAACTAG) — lower, 0.181
- GTATCAGCTTGGGTTCTAACCTGTTGCCT (site GTATCACCTAG) — lower, 0.226
- GTATCAGCTTGGGTTCTAACCTGTTGCCT (site GTATCAGCTAG) — within 0.2 log units, 1.25
- GTATCAGCTTGGGTTCTAACCTGTTGCCT (site GTATCATCTAG) — lower, 0.0176
- GTATGAACTTGGGTTCTAACCTGTTGCCT (site GTATGAACTAG) — within 0.2 log units, 1.44
- GTATGAACTTGGGTTCTAACCTGTTGCCT (site GTATGACCTAG) — lower, 0.121
- GTATGAACTTGGGTTCTAACCTGTTGCCT (site GTATGAGCTAG) — lower, 0.384
- GTATGAACTTGGGTTCTAACCTGTTGCCT (site GTATGATCTAG) — lower, 0.119
- GTATGACCTTGGGTTCTAACCTGTTGCTT (site GTAGCACCTAA) — lower, 0.0633
- GTATGACCTTGGGTTCTAACCTGTTGCTT (site GTATGACCTAA) — within 0.2 log units, 1.54
- GTATGAGCTTGGGTTCTAACCTGTTGCTG (site ATTTGAGCTCA) — lower, 0.288
- GTATGAGCTTGGGTTCTAACCTGTTGCTG (site GTATGAGCTCA) — within 0.2 log units, 1.51
- GTATGATCTTGGGTTCTAACCTGTTGCAT (site GTATGATCTAT) — lower, 0.807
- GTATGATCTTGGGTTCTAACCTGTTGCAT (site GTATGTACTAT) — lower, 0.106
- GTATGATCTTGGGTTCTAACCTGTTGCCT (site GTATGAACTAG) — lower, 0.026
- GTATGATCTTGGGTTCTAACCTGTTGCCT (site GTATGACCTAG) — lower, 0.0755
- GTATGATCTTGGGTTCTAACCTGTTGCCT (site GTATGAGCTAG) — lower, 0.742
- GTATGATCTTGGGTTCTAACCTGTTGCCT (site GTATGATCTAG) — within 0.2 log units, 1.45
- GTATGGACTTGGGTTCTAACCTGTTGCAA (site CATCAAGCTAG) — lower, 0.138
- GTATGGACTTGGGTTCTAACCTGTTGCAA (site GTATGGACTTT) — within 0.2 log units, 1.32
- GTATGTGCTTGGGTTCTAACCTGTTGCGG (site GTATGAGCTCC) — lower, 0.689
- GTATGTGCTTGGGTTCTAACCTGTTGCGG (site GTATGTGCTCC) — higher, 2.84
- GTATTTCCTTGGGTTCTAACCTGTTGCTT (site GTATCTCCTAA) — lower, 0.0837
- GTATTTCCTTGGGTTCTAACCTGTTGCTT (site GTATTTCCTAA) — lower, 0.782
- GTCAAGACTTGGGTTCTAACCTGTTGCCA (site GTCAAGACTCG) — lower, 0.3
- GTCAAGACTTGGGTTCTAACCTGTTGCCA (site GTCAAGACTTG) — lower, 1.03
- GTCACCTCTTGGGTTCTAACCTGTTGCTA (site GTAACCTCTGA) — lower, 0.217
- GTCACCTCTTGGGTTCTAACCTGTTGCTA (site GTCACCTCTTA) — higher, 1.58
- GTCACTACTTGGGTTCTAACCTGTTGCAT (site AAGGTACCTCC) — lower, 0.139
- GTCACTACTTGGGTTCTAACCTGTTGCAT (site GTCACTACTAT) — lower, 0.381
- GTCAGCTCTTGGGTTCTAACCTGTTGCTA (site GACCGCTCTTA) — lower, 0.127
- GTCAGCTCTTGGGTTCTAACCTGTTGCTA (site GTCAGCTCTTA) — lower, 1.16
- GTCATACCTTGGGTTCTAACCTGTTGCCT (site GTCATACCTAG) — lower, 1.02
- GTCATACCTTGGGTTCTAACCTGTTGCCT (site GTCCTACCTAG) — lower, 0.0356
- GTCATACCTTGGGTTCTAACCTGTTGCCT (site GTCGTACCTAG) — lower, 0.111
- GTCATACCTTGGGTTCTAACCTGTTGCCT (site GTCTTACCTAG) — lower, 0.203
- GTCATGCCTTGGGTTCTAACCTGTTGCCT (site GGCCTGCCTAG) — lower, 0.0766
- GTCATGCCTTGGGTTCTAACCTGTTGCCT (site GTCATGCCTAG) — lower, 1.1
- GTCCACCCTTGGGTTCTAACCTGTTGCAG (site GTCCACCCTCT) — higher, 1.86
- GTCCACCCTTGGGTTCTAACCTGTTGCAG (site GTCCACTCTGT) — lower, 0.01
- GTCCACTCTTGGGTTCTAACCTGTTGCTT (site GTCCACTCTAA) — within 0.2 log units, 1.46
- GTCCACTCTTGGGTTCTAACCTGTTGCTT (site GTCCAGTCTAC) — lower, 0
- GTCCAGGCTTGGGTTCTAACCTGTTGCGG (site GACCAGTCTCC) — lower, 0.421
- GTCCAGGCTTGGGTTCTAACCTGTTGCGG (site GTCCAGGCTCC) — lower, 0.924
- GTCCCTCCTTGGGTTCTAACCTGTTGCCT (site GTCCCTCCTAA) — lower, 0.187
- GTCCCTCCTTGGGTTCTAACCTGTTGCCT (site GTCCCTCCTAC) — lower, 0.116
- GTCCCTCCTTGGGTTCTAACCTGTTGCCT (site GTCCCTCCTAG) — lower, 0.709
- GTCCCTCCTTGGGTTCTAACCTGTTGCCT (site GTCCCTCCTAT) — lower, 0.586
- GTCCGAACTTGGGTTCTAACCTGTTGCCA (site GTCCGAACTTG) — lower, 0.428
- GTCCGAACTTGGGTTCTAACCTGTTGCCA (site GTCGGAGCTTG) — lower, 0.0199
- GTCCGTCCTTGGGTTCTAACCTGTTGCCT (site GTCCGTCCTAA) — lower, 0.119
- GTCCGTCCTTGGGTTCTAACCTGTTGCCT (site GTCCGTCCTAC) — lower, 0.0319
- GTCCGTCCTTGGGTTCTAACCTGTTGCCT (site GTCCGTCCTAG) — lower, 0.833
- GTCCGTCCTTGGGTTCTAACCTGTTGCCT (site GTCCGTCCTAT) — lower, 0.0563
- GTCCGTCCTTGGGTTCTAACCTGTTGCGT (site GTCCGTCCTAA) — lower, 0.139
- GTCCGTCCTTGGGTTCTAACCTGTTGCGT (site GTCCGTCCTAC) — higher, 1.69
- GTCCGTCCTTGGGTTCTAACCTGTTGCGT (site GTCCGTCCTAG) — lower, 0.09
- GTCCGTCCTTGGGTTCTAACCTGTTGCGT (site GTCCGTCCTAT) — lower, 0.504
